Source: ChEMBL document CHEMBL6114953, “De novo discovery of cyclic peptide inhibitors of IL-11 signaling” (Bioorg Med Chem, 2025)
The source made the active and inactive calls. The rule behind the calls is not given here. Where a SMILES comes first, the peptide text is derived from it. Bridges are numbered along the chain shown (N, C = ends).

How the values were obtained:
Homo sapiens = species on record: Homo sapiens; assay: Binding affinity to CAP chip-immobilized IL-6R (unknown origin) by SPR analysis
[1] = Inhibition of his-tagged recombinant human IL-11 (22 to 199 residues) expressed in HEK293 cells/biotinylated recombinant human IL-11Ralpha (24 to 370 residues) expressed in HEK293 cells incubated for 1 hr by AlphaLISA assay; format: cell-based
Interleukin-11 = target: T1, Interleukin-11 (Homo sapiens, UniProt P20809); assay: Binding affinity to CAP chip-immobilized IL-11 (unknown origin) assessed as dissociation constant by SPR analysis
T1 sequence (P20809 whole entry): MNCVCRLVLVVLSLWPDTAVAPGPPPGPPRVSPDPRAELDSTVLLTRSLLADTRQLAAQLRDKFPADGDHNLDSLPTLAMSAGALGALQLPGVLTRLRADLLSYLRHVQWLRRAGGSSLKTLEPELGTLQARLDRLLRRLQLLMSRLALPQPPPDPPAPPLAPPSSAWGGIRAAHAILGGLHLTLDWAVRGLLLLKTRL

[2] = Binding affinity to CAP chip-immobilized IL-6 (unknown origin) by SPR analysis; conditions: Homo sapiens
[3] = target: T2, Interleukin-11 receptor subunit alpha (Homo sapiens) (UniProt Q14626); assay: Binding affinity to CAP chip-immobilized biotinylated recombinant human IL-11Ralpha by SPR analysis
T2 sequence (whole entry): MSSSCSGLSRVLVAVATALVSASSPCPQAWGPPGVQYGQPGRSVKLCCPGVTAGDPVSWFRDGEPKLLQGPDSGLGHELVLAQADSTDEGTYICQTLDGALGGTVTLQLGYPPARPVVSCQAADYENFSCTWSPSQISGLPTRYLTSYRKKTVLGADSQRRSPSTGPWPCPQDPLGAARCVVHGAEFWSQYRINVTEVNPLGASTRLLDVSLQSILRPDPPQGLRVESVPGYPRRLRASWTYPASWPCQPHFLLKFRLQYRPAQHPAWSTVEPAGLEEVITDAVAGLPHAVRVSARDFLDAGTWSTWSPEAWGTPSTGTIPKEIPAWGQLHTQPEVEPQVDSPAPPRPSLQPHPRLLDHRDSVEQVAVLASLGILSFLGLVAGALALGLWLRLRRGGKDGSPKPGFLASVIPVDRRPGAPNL

[4] = target: T3, Interleukin-11 (Homo sapiens) (UniProt P20809); assay: Binding affinity to CAP chip-immobilized IL-11 (unknown origin) by SPR analysis
T3 sequence (whole entry): T1 sequence (P20809 whole entry)

SMILES: CSCC[C@@H]1NC(=O)[C@H](Cc2c[nH]cn2)NC(=O)[C@H](CO)NC(=O)[C@@H](NC(=O)[C@H](Cc2c[nH]c3ccccc23)NC(=O)[C@H](Cc2ccc(O)cc2)NC(C)=O)CSSC[C@@H](C(=O)N[C@@H](Cc2c[nH]c3ccccc23)C(=O)N[C@@H](CCCNC(=N)N)C(N)=O)NC(=O)[C@H](C(C)C)NC(=O)[C@H]([C@@H](C)O)NC(=O)[C@H]([C@@H](C)O)NC(=O)[C@H](Cc2ccc(O)cc2)NC(=O)[C@H](Cc2ccc(O)cc2)NC1=O (Ac-YWCSHMYYTTVCWR-NH2; disulfide 3-12)
- Activity (Homo sapiens): inactive
- Ki [1]: 300 nM
- Kd (Interleukin-11): 140 nM
- Activity [2]: inactive
- Activity [3]: inactive

SMILES: CC(C)[C@@H]1NC(=O)[C@H](CCCNC(=N)N)NC(=O)[C@@H]2CCCN2C(=O)[C@H](CC(=O)O)NC(=O)[C@H](Cc2ccc(O)cc2)NC(=O)[C@H](Cc2c[nH]c3ccccc23)NC(=O)CNC(=O)[C@@H](NC(=O)[C@H](Cc2ccc(O)cc2)NC(=O)[C@H](Cc2c[nH]c3ccccc23)NC(=O)[C@H](Cc2ccccc2)NC(=O)[C@H](CCC(=O)O)NC(=O)[C@@H](NC(=O)[C@@H](NC(=O)[C@H](CCC(=O)O)NC(=O)[C@H](C)N)[C@@H](C)O)C(C)C)CSSC[C@@H](C(=O)N[C@@H](CO)C(=O)N[C@@H](Cc2ccc(O)cc2)C(N)=O)NC(=O)CNC1=O (H-AETVEFWYCGWYDPRVGCSY-NH2; disulfide 9-18)
- Activity (Homo sapiens): inactive
- Ki [1]: 500 nM
- Kd (Interleukin-11): 2600 nM
- Activity [2]: inactive
- Activity [3]: inactive

SMILES: CC(C)C[C@@H]1NC(=O)[C@@H]2CCCN2C(=O)[C@H](C(C)C)NC(=O)[C@H](Cc2c[nH]c3ccccc23)NC(=O)[C@@H](NC(=O)[C@H](Cc2ccccc2)NC(=O)[C@H](CCC(=O)O)NC(=O)[C@@H](NC(=O)[C@@H](NC(=O)[C@H](CCC(=O)O)NC(=O)[C@H](C)N)[C@@H](C)O)C(C)C)CSSC[C@@H](C(N)=O)NC(=O)[C@H](C(C)C)NC(=O)[C@H](CCC(N)=O)NC(=O)[C@H](Cc2ccccc2)NC(=O)[C@H](Cc2ccc(O)cc2)NC(=O)[C@H](CO)NC1=O (H-AETVEFCWVPLSYFQVC-NH2; disulfide 7-17)
- Activity (Homo sapiens): inactive
- Activity [4]: inactive
- Ki [1]: 1500 nM
- Activity [2]: inactive
- Activity [3]: inactive

SMILES: C[C@@H]1NC(=O)[C@H](CCCNC(=N)N)NC(=O)[C@H](CCCNC(=N)N)NC(=O)CNC(=O)[C@@H](N)CSSC[C@@H](C(N)=O)NC(=O)[C@H](CO)NC(=O)CNC(=O)CNC1=O (H-CGRRAGGSC-NH2; disulfide 1-9)
- Activity (Homo sapiens): inactive
- Activity [4]: inactive
- Ki [1]: > 28000 nM
- Activity [2]: inactive
- Activity [3]: inactive
